# Measurements published in ChEMBL document CHEMBL1201862, “PubChem BioAssay data set” (2004).
# Activity calls are given as the source filed them.
# What was measured:
# Insulin-degrading enzyme = molecular target: T1, Insulin-degrading enzyme (Homo sapiens, UniProt P14735); experiment: activators of recombinant IDE enzyme, dose response, counter-screen for IDE activator project, biochemical, fluorescence polarization (AID 588681)
# T1 sequence (P14735 whole entry): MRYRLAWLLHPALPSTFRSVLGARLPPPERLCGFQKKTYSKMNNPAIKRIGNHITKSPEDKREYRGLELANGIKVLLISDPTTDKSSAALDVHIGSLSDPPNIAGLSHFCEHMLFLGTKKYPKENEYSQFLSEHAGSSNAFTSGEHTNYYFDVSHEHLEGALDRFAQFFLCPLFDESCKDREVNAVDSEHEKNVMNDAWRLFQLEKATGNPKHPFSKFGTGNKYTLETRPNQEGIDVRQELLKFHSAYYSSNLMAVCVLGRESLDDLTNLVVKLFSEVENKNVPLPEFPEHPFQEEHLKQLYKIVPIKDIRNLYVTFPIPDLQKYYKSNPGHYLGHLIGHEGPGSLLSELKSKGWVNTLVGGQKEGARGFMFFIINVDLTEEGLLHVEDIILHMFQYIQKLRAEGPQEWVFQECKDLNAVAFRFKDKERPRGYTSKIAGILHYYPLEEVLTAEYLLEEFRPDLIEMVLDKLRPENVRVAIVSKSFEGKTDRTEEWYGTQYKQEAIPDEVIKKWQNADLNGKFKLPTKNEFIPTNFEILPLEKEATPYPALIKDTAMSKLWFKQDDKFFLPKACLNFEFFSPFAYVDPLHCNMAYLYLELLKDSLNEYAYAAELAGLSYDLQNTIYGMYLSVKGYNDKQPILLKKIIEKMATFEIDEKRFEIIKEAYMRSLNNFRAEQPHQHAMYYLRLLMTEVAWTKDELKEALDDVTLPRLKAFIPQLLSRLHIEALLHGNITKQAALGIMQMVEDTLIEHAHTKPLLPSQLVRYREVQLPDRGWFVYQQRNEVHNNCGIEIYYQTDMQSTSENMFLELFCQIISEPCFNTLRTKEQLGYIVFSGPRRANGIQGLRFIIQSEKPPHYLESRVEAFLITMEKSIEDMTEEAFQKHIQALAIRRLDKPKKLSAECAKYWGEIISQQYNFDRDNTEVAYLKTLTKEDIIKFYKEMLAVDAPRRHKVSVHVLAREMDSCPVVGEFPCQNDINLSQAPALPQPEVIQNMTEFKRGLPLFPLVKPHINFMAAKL
# [1] = molecular target: Cell division cycle 7-related protein kinase (Homo sapiens, UniProt O00311); format: functional;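 further: value obtained from a kinome-wide kinase panel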
# [2] = molecular target: Serine/threonine-protein kinase MRCK alpha (Homo sapiens, UniProt Q5VT25); format: functional
# [3] = molecular target: Dual specificity protein kinase CLK4 (Homo sapiens, UniProt Q9HAZ1); format: functional
# Chain of Dual specificity protein kinase CLK4 (Q9HAZ1 whole entry): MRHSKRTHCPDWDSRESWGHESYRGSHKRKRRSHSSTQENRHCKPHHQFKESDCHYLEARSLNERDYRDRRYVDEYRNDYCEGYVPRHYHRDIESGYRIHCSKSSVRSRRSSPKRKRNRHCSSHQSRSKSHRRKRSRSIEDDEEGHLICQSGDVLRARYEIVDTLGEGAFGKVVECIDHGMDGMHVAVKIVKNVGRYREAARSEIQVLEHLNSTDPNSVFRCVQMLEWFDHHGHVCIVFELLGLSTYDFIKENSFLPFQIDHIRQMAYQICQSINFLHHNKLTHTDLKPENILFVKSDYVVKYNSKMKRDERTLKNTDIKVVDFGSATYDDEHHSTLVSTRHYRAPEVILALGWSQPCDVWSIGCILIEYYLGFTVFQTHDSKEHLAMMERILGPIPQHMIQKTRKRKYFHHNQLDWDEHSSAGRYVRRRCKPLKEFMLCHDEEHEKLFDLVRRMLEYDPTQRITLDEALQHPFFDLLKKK
# Chain of Cell division cycle 7-related protein kinase (O00311 whole entry): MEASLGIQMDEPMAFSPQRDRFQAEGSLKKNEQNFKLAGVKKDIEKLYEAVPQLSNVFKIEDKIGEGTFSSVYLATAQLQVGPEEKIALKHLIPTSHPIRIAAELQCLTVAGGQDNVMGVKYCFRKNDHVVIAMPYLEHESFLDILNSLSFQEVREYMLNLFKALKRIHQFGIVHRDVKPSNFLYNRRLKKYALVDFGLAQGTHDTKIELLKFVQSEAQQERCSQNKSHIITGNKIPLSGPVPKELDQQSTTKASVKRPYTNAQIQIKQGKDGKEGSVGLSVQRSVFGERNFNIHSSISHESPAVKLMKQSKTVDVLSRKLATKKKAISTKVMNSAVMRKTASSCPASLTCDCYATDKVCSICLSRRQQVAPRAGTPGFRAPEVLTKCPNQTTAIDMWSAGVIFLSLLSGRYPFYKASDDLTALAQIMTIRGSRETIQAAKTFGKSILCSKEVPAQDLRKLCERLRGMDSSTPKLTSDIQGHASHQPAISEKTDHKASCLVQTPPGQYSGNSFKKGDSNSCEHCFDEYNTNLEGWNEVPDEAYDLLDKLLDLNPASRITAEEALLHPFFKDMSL
# Chain of Serine/threonine-protein kinase MRCK alpha (Q5VT25 whole entry): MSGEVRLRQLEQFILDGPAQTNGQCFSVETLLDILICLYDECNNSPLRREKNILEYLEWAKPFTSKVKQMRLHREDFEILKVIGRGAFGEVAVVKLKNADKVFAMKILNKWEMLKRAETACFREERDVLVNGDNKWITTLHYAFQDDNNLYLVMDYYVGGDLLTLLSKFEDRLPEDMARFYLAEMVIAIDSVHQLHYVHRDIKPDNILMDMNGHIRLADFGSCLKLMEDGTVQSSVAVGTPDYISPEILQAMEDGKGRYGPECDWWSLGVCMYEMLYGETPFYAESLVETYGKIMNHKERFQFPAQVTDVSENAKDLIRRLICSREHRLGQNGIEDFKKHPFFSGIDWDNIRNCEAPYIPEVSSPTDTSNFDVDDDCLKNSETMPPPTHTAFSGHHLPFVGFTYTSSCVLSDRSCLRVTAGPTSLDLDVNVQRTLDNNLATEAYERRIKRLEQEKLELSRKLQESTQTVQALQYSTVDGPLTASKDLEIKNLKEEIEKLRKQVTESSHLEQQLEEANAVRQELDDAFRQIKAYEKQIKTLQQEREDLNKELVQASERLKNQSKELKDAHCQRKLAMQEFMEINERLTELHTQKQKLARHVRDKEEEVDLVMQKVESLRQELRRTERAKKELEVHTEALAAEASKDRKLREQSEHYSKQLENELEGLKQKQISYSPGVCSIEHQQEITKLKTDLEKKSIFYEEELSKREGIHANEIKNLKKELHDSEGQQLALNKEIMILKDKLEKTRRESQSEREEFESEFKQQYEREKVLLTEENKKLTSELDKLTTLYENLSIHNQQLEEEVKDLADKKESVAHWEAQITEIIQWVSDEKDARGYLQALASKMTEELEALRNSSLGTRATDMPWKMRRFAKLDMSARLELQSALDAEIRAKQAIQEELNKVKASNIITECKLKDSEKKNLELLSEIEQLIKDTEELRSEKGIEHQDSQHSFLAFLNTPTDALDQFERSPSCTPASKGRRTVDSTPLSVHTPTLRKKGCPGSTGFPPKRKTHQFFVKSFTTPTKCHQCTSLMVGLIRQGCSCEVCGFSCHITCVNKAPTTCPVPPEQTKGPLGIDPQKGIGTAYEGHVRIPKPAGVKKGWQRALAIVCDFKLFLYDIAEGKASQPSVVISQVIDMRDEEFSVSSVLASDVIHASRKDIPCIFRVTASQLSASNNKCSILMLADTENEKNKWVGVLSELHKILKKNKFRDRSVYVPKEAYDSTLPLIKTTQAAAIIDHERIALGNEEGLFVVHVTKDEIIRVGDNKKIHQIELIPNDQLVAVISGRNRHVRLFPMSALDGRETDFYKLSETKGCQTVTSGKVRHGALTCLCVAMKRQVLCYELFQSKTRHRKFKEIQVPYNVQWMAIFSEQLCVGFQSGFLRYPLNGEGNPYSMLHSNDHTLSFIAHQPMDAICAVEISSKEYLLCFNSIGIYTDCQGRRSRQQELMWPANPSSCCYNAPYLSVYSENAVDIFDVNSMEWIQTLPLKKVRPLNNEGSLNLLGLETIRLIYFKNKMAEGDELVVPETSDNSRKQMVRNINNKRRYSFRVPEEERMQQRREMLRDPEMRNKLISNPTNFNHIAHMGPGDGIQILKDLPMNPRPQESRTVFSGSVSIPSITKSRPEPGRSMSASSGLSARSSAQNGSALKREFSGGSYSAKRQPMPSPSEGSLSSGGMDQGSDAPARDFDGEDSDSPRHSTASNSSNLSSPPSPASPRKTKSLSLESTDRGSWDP
smiles,measurement,setting,value
CCN(CC)CCCC(C)n1c2nc(=O)[nH]c(=O)c-2nc2cc(Cl)ccc21 (stereo unspecified),EC50,Insulin-degrading enzyme,> 54700 nM (inactive)
OC1CCC(Nc2nc(Cl)cc(-c3c[nH]c4ncccc34)n2)CC1 (stereo unspecified),Ki,[1],0.158 nM (active)
same,pKi,[1],9.8
same,Ki,[2],31.6 nM (active)
same,pKi,[2],7.5
COc1cccc(CNC(=O)c2cnc(-c3ccncc3)nc2)c1,Ki,[3],> 2510 nM (inactive)
